Source: patent US20220396818A1, “POLYNUCLEOTIDE SYNTHESIS METHOD, KIT AND SYSTEM” (Oxford Nanopore Technologies PLC, priority 2019, published 2022)

Test system: 3′-O-azidomethyl group on DNA model
Assay: Deprotection of 3′-O-azidomethyl group by TCEP, monitored by extension reaction
Details: 0.2 μM DNA model
Experimental: Deprotection step (FIG. 26a) was studied on DNA model bearing 3′-O-azidomethyl group that is introduced to DNA by incorporation of 3′-O-azidomethyl-dNTPs by Therminator IX DNA polymerase. Deprotection was carried out by tris(carboxyethyl)phosphine (TCEP) and monitored by extension reaction when mixture of all natural dNTPs is added to the solution of the purified deprotected DNA.
• 1. 2 μl of 10× Thermopol® buffer (20 mM Tris-HCl, 10 mM (NH4)2SO4, 10 mM KCl, 2 mM MgSO4, 0.1% Triton® X-100, pH 8.8, New England BioLabs) was mixed with 12.25 μl of sterile deionized water (ELGA VEOLIA) in 1.5 ml Eppendorf tube. • 2. 1 μl of 10 μM primer (10 pmol, 1 equiv) (SEQ ID NO: 39, FIG. 26i) and 1.5 μl of either 10 μM template-A/G/T/C (15 pmol, 1.5 equiv) (SEQ ID NOS: 40 to 43, FIG. 26i) were added to the reaction mixture. • 3. 3′-O-modified-dTTP/dCTP/dATP/dGTP (2 μl of 100 μM) and MnCl2 (1 μl of 40 mM) were added. • 4. 1.5 μl of Therminator IX DNA polymerase (15 U, New England BioLabs) was then added. • 5. The reaction was incubated for 5 minutes at 37° C. • 6. 4 μL of the sample was taken out and mixed with 0.5 ul of 5 mM dNTP mix and allowed to react for 10 minutes for control reaction. • 7. 40 μL of the 500 mM TCEP in 1M TRIS buffer pH 7.4 was added to the reaction mixture and allowed to react for 10 minutes at 37° C. • 8. […]

## O=C(O)CCP(CCC(=O)O)CCC(=O)O [TCEP, tris(carboxyethyl)phosphine]
50 mM TCEP
  cleavage of 3′-O-azidomethyl group with high efficiency: not sufficient
300 mM TCEP
  efficiency of cleavage of 3′-O-azidomethyl group: 95%
